Drawing on patent US20220348592A1, “FUSED HETEROCYCLIC DERIVATIVES” (Janssen Sciences Ireland Unlimited Company, priority 2019, published 2022), this text covers EC50 and CC50 for 42 molecules.

In general, EC50 refers to the concentration that produces a half-maximal response. The CC50 is the concentration that lowers cell viability or growth by half.

For series [1], the system named is HBV. The experiment in a line: Anti-HBV activity: intracellular HBV DNA by real-time PCR in HepG2.117 cell line. It is filed as cell-based, Hepatitis B virus. The settings on record: Hepatitis B virus, 72 h; HepG2.117 cells, 3 days of treatment, intracellular HBV DNA by real-time PCR, mean value; read-out: HBV-AVE-HepG2.117 EC50 (μM, mean value). The gist of the method: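 HepG2.117 cells, a Tet-off inducible HBV-producing line, induced to replicate HBV and then treated with serially diluted compound. After 3 days, intracellular HBV DNA quantified by real-time PCR with HBV-specific primers and probe.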

A short description of series [2]: Cytotoxicity in HepG2.117 cells, ATPlite Luminescence Assay. The class given is cell-based, human. The settings on record: human, incubated for 3 days, mean value, read-out: TOX-HepG2.117 CC50 (μM, mean value). How it is done:
Cytotoxicity of the compounds was tested using HepG2 or HepG2.117 cells, incubated for 3 days in the presence of compounds. The viability of the cells was assessed using the PERKIN ELMER ATPlite Luminescence Assay System.”
A general note: Cellular ATP, detected with luciferase, serves as a proxy for viable cell number.

Take `C[C@@H]1Cc2nn3c(c2CN1C(=O)c1ccc(Cl)c(Cl)c1)C(=O)N(Cc1ccc(F)cn1)CC3` [Example C208]: the EC50 in series [1] stood at 0.13 µM. Also, the CC50 at 3 days in series [2] is over 50 µM.
Turning to `Cc1ncc(CN2CCn3nc4c(c3C2=O)CN(C(=O)c2ccc(Cl)c(Cl)c2)[C@H](C)C4)o1` [Example C209], the EC50 in series [1] was over 2.5 µM. In series [2], the CC50 at 3 days is over 50 µM.
The matching figures for `C[C@@H]1Cc2nn3c(c2CN1C(=O)c1ccc(Cl)c(Cl)c1)C(=O)N(Cc1ccnc(F)c1)CC3` [Example C210]: 0.062 µM and over 50 µM.
Consider `C[C@@H]1Cc2nn3c(c2CN1C(=O)c1ccc(Cl)c(Cl)c1)C(=O)N(Cc1ccnc(C#N)c1)CC3` [Example C211], for which, in series [1], the EC50 turned out to be 0.285 µM. Besides, in series [2], the CC50 at 3 days is over 50 µM.
As to `C[C@@H]1Cc2nn3c(c2CN1C(=O)c1ccc(Cl)c(Cl)c1)C(=O)N(Cc1cc(F)ccc1OC(F)F)CC3` [Example C212], the EC50 in series [1] was determined as 0.05 µM. The CC50 at 3 days in series [2] is over 50 µM.
Take `C[C@@H]1Cc2nn3c(c2CN1C(=O)c1ccc(Cl)c(Cl)c1)C(=O)N(Cc1cccc(C(F)(F)F)n1)CC3` [Example C213]: the EC50 in series [1] was 0.382 µM. Also, in series [2], the 50% cytotoxic concentration (CC50) at 3 days was 37.5 µM.
The matching figures for `Cc1ncoc1CN1CCn2nc3c(c2C1=O)CN(C(=O)c1ccc(Cl)c(Cl)c1)[C@H](C)C3` [Example C214]: 0.074 µM and over 50 µM.
Regarding `COc1ccc(C#N)cc1CN1CCn2nc3c(c2C1=O)CN(C(=O)c1ccc(Cl)c(Cl)c1)[C@H](C)C3` [Example C215], in series [1], the EC50 is 0.106 µM. Besides, in series [2], the CC50 at 3 days was over 50 µM.
As for `C[C@@H]1Cc2nn3c(c2CN1C(=O)c1ccc(Cl)c(Cl)c1)C(=O)N(Cc1ccc(F)c(C#N)c1)CC3` [Example C216], the EC50 in series [1] was found to be 0.09 µM. In series [2], the CC50 at 3 days is over 50 µM.
Turning to `CC(c1nc(C(C)(C)C)no1)N1CCn2nc3c(c2C1=O)CN(C(=O)c1ccc(Cl)c(Cl)c1)[C@H](C)C3` (stereo partly drawn) [Example C217], in series [1], the EC50 came to 0.183 µM. In addition, in series [2], the CC50 at 3 days is 39.5 µM.
On to `CC(c1nccs1)N1CCn2nc3c(c2C1=O)CN(C(=O)c1ccc(Cl)c(Cl)c1)[C@H](C)C3` (stereo partly drawn) [Example C218], for which the EC50 in series [1] turned out to be 0.039 µM. In series [2], the CC50 at 3 days is over 50 µM.
The matching figures for `Cc1cnc(C(C)N2CCn3nc4c(c3C2=O)CN(C(=O)c2ccc(Cl)c(Cl)c2)[C@H](C)C4)cn1` (stereo partly drawn) [Example C219]: 0.068 µM and over 50 µM.
The matching figures for `CCc1nnc(C(C)N2CCn3nc4c(c3C2=O)CN(C(=O)c2ccc(Cl)c(Cl)c2)[C@H](C)C4)o1` (stereo partly drawn) [Example C220]: 0.077 µM and over 50 µM.
Take `Cc1cnc(C(C)N2CCn3nc4c(c3C2=O)CN(C(=O)c2ccc(Cl)c(Cl)c2)[C@H](C)C4)o1` (stereo partly drawn) [Example C221]: the EC50 in series [1] turned out to be 0.022 µM. In series [2], the CC50 at 3 days is over 50 µM.
Take `CCc1noc(C(C)N2CCn3nc4c(c3C2=O)CN(C(=O)c2ccc(Cl)c(Cl)c2)[C@H](C)C4)n1` (stereo partly drawn) [Example C222]: in series [1], the EC50 worked out at 0.124 µM. Also, the CC50 at 3 days in series [2] was over 50 µM.
Consider `Cc1noc(C(C)N2CCn3nc4c(c3C2=O)CN(C(=O)c2ccc(Cl)c(Cl)c2)[C@H](C)C4)n1` (stereo partly drawn) [Example C223], for which the EC50 in series [1] came out at 0.219 µM. For the same molecule, the CC50 at 3 days in series [2] was over 50 µM.
The matching figures for `Cc1nnc(C(C)N2CCn3nc4c(c3C2=O)CN(C(=O)c2ccc(Cl)c(Cl)c2)[C@H](C)C4)o1` (stereo partly drawn) [Example C224]: 0.326 µM and over 50 µM.
The corresponding values for `Cc1nc(C(C)N2CCn3nc4c(c3C2=O)CN(C(=O)c2ccc(Cl)c(Cl)c2)[C@H](C)C4)no1` (stereo partly drawn) [Example C225] are 0.263 µM and over 50 µM.
The corresponding values for `COc1ccccc1C(C)N1CCn2nc3c(c2C1=O)CN(C(=O)c1ccc(Cl)c(Cl)c1)[C@H](C)C3` (stereo partly drawn) [Example C227] are 0.129 µM and 37.3 µM.
As to `C[C@@H]1Cc2nn3c(c2CN1C(=O)c1ccc(Cl)c(Cl)c1)C(=O)N(Cc1cc(F)ccc1F)CC3` [Example C228], the EC50 in series [1] worked out at 0.062 µM. Moreover, the CC50 at 3 days in series [2] came out at 37.5 µM.
For the molecule `Cc1ocnc1CN1CCn2nc3c(c2C1=O)CN(C(=O)c1ccc(Cl)c(Cl)c1)[C@H](C)C3` [Example C229], the EC50 in series [1] is 0.438 µM. In series [2], the CC50 at 3 days is over 25 µM.
As to `C[C@@H]1Cc2nn3c(c2CN1C(=O)c1ccc(Cl)c(Cl)c1)C(=O)N(Cc1cc(F)cc(C#N)c1)CC3` [Example C230], the EC50 in series [1] is 0.045 µM. The CC50 at 3 days in series [2] was over 12.5 µM.
The matching figures for `C[C@@H]1Cc2nn3c(c2CN1C(=O)c1ccc(Cl)c(Cl)c1)C(=O)N(Cc1cccc(C#N)c1F)CC3` [Example C231]: 0.09 µM and over 50 µM.
The corresponding values for `Cc1ccc(CN2CCn3nc4c(c3C2=O)CN(C(=O)c2ccc(Cl)c(Cl)c2)[C@H](C)C4)c(C)n1` [Example C232] are 0.066 µM and 24.4 µM.
In the case of `C[C@@H]1Cc2nn3c(c2CN1C(=O)c1ccc(Cl)c(Cl)c1)C(=O)N(Cc1cccnc1C(F)(F)F)CC3` [Example C233], the EC50 in series [1] turned out to be 0.423 µM. In addition, in series [2], the CC50 at 3 days is 29.8 µM.
With `Cc1nc(C)c(CN2CCn3nc4c(c3C2=O)CN(C(=O)c2ccc(Cl)c(Cl)c2)[C@H](C)C4)s1` [Example C234], the EC50 in series [1] is 0.036 µM. Also, the CC50 at 3 days in series [2] was over 50 µM.
For the molecule `C[C@@H]1Cc2nn3c(c2CN1C(=O)c1ccc(Cl)c(Cl)c1)C(=O)N(Cc1nc(C2CC2)nn1C)CC3` [Example C235], the EC50 in series [1] is 1.93 µM. Further, the CC50 at 3 days in series [2] was over 50 µM.
The matching figures for `Cc1conc1CN1CCn2nc3c(c2C1=O)CN(C(=O)c1ccc(Cl)c(Cl)c1)[C@H](C)C3` [Example C236]: 0.325 µM and over 51 µM.
The corresponding values for `C[C@@H]1Cc2nn3c(c2CN1C(=O)c1ccc(Cl)c(Cl)c1)C(=O)N(Cc1ccc(C(F)(F)F)cn1)CC3` [Example C237] are 0.107 µM and 18.8 µM.
For `C[C@@H]1Cc2nn3c(c2CN1C(=O)c1ccc(Cl)c(Cl)c1)C(=O)N(Cc1ccc(C#N)c(F)c1)CC3` [Example C238], the EC50 in series [1] came to 0.029 µM. Also, the CC50 at 3 days in series [2] was 39.9 µM.
The matching figures for `C[C@@H]1Cc2nn3c(c2CN1C(=O)c1ccc(Cl)c(Cl)c1)C(=O)N(Cc1cn(C2CC2)nn1)CC3` [Example C239]: 0.154 µM and over 50 µM.
For `C[C@@H]1Cc2nn3c(c2CN1C(=O)c1ccc(Cl)c(Cl)c1)C(=O)N(Cc1cnc(Cl)c(F)c1)CC3` [Example C240], the EC50 in series [1] worked out at 0.017 µM. The CC50 at 3 days in series [2] was determined as 35.2 µM.
With `Cc1nocc1CN1CCn2nc3c(c2C1=O)CN(C(=O)c1ccc(Cl)c(Cl)c1)[C@H](C)C3` [Example C241], the EC50 in series [1] came out at 0.19 µM. In addition, the CC50 at 3 days in series [2] is over 50 µM.
The corresponding values for `C[C@@H]1Cc2nn3c(c2CN1C(=O)c1ccc(Cl)c(Cl)c1)C(=O)N(Cc1nccn1C)CC3` [Example C242] are 0.589 µM and over 50 µM.
The matching figures for `CCOc1cc(CN2CCn3nc4c(c3C2=O)CN(C(=O)c2ccc(Cl)c(Cl)c2)[C@H](C)C4)nc2nc(C(F)(F)F)nn12` [Example C243]: over 2.5 µM and over 50 µM.
The corresponding values for `CC(c1ccccc1F)N1CCn2nc3c(c2C1=O)CN(C(=O)c1ccc(Cl)c(Cl)c1)[C@H](C)C3` (stereo partly drawn) [Example C244] are 0.048 µM and 24.5 µM.
With `Cc1nnc(C(C)N2CCn3nc4c(c3C2=O)CN(C(=O)c2ccc(Cl)c(Cl)c2)[C@H](C)C4)s1` (stereo partly drawn) [Example C245], the EC50 in series [1] is 0.072 µM. The CC50 at 3 days in series [2] is over 50 µM.
Turning to `CC(c1cnccn1)N1CCn2nc3c(c2C1=O)CN(C(=O)c1ccc(Cl)c(Cl)c1)[C@H](C)C3` (stereo partly drawn) [Example C246], the EC50 in series [1] worked out at 0.171 µM. For the same molecule, in series [2], the CC50 at 3 days was over 50 µM.
The matching figures for `CC(c1nnnn1C)N1CCn2nc3c(c2C1=O)CN(C(=O)c1ccc(Cl)c(Cl)c1)[C@H](C)C3` (stereo partly drawn) [Example C247]: over 2.5 µM and over 50 µM.
Consider `CC(c1c(F)cccc1F)N1CCn2nc3c(c2C1=O)CN(C(=O)c1ccc(Cl)c(Cl)c1)[C@H](C)C3` (stereo partly drawn) [Example C248], for which the EC50 in series [1] worked out at 0.013 µM. For the same molecule, in series [2], the CC50 at 3 days came to 25 µM.
On to `CC(c1nncn1C)N1CCn2nc3c(c2C1=O)CN(C(=O)c1ccc(Cl)c(Cl)c1)[C@H](C)C3` (stereo partly drawn) [Example C249], for which the EC50 in series [1] was over 2.5 µM. Moreover, the CC50 at 3 days in series [2] was over 50 µM.
On to `CC(c1ccncc1)N1CCn2nc3c(c2C1=O)CN(C(=O)c1ccc(Cl)c(Cl)c1)[C@H](C)C3` (stereo partly drawn) [Example C250], for which the EC50 in series [1] is 0.033 µM. Moreover, the CC50 at 3 days in series [2] was over 12.5 µM.
